In ChEMBL document CHEMBL1137268, “2-Aminoquinoline melanin-concentrating hormone (MCH)1R antagonists” (Bioorg Med Chem Lett, 2006):

Experiments:
[1] = molecular target: Melanin-concentrating hormone receptor 2 (Homo sapiens) (UniProt Q969V1); experiment: Inhibition of 125I-[Phe13,Tyr19]-MCHbinding to human MCH-R2; conditions: concentration not given here
[2] = molecular target: T1, Melanin-concentrating hormone receptor 1 (Homo sapiens, UniProt Q99705); experiment: Displacement of 125I-[Phe13,Tyr19]-MCH from human MCH-R1
T1 sequence (Q99705 whole entry): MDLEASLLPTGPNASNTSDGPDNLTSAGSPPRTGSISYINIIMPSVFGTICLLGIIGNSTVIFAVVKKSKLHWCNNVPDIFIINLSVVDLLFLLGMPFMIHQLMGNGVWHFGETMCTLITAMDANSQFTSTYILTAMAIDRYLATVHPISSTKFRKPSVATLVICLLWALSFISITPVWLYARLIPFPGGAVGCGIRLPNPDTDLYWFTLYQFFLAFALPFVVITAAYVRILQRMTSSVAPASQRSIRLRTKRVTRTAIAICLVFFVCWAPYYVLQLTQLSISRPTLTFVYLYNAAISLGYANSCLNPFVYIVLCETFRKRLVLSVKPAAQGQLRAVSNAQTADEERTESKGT

[3] = molecular target: T2, Melanin-concentrating hormone receptor 1 (Rattus norvegicus, UniProt P97639); experiment: […] of IP3-coupled mobilization of calcium in HEK293 cells expressing rat MCH-R1; assay type: functional, cell-based
T2 sequence (P97639 whole entry): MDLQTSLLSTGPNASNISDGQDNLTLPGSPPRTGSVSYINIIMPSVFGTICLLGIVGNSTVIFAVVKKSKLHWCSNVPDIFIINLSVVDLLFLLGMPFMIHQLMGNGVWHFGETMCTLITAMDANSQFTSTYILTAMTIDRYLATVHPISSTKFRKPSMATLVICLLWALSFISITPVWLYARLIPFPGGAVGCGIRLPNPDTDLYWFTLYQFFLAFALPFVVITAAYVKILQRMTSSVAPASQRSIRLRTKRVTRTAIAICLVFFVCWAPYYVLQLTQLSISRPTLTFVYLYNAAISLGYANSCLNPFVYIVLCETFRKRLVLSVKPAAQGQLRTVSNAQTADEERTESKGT

[4] = Half-life in rats; assay type: ADME, organism-based; conditions: rat, in vivo
[5] = Volume of distribution in rats; assay type: ADME, organism-based; conditions: rat, in vivo; read-out: Vdss
[6] = molecular target: T1, Melanin-concentrating hormone receptor 1; experiment: Inhibition of 125I-[Phe13,Tyr19]-MCH binding to human MCH-R1 at 5uM
[7] = molecular target: Melanin-concentrating hormone receptor 1 (Rattus norvegicus) (UniProt P97639); experiment: Inhibition of 125I-[Phe13,Tyr19]-MCH binding to rat MCH-R1 at 5uM
Chain of Melanin-concentrating hormone receptor 1 (Rattus norvegicus) (P97639 whole entry): as above

[8] = Rat Clp; assay type: ADME, organism-based; conditions: plasma, read-out: Clp
Rattus norvegicus = organism: Rattus norvegicus; experiment: Decreased overnight food intake in continuously infused rats on high-fat diet; assay type: functional
[9] = molecular target: T2, Melanin-concentrating hormone receptor 1; experiment: Displacement of 125I-[Phe13,Tyr19]-MCH from rat MCH-R1

Chain of Melanin-concentrating hormone receptor 2 (Homo sapiens) (Q969V1 whole entry): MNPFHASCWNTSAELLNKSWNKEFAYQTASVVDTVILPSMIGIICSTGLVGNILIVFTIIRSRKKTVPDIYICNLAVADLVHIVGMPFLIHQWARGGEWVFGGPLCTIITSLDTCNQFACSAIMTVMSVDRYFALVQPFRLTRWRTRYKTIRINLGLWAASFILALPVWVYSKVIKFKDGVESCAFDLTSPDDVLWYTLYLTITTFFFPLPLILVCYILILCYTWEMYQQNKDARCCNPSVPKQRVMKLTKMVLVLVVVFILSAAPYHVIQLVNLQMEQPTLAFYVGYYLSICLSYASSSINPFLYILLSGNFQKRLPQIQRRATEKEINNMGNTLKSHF

Row | Structure (SMILES) | inhibition [1] | IC50 [2] | EC50 [3] | other results
1 | CCN(CC)c1ccc2cc(NC(=O)CCc3ccc(C(F)(F)F)cc3)ccc2n1 | < 50% | 88 nM | 830 nM | 
2 | CN(c1ccc2cc(NC(=O)CCc3ccc(C(F)(F)F)cc3)ccc2n1)C1CCCC1 | < 50% | 2 nM | 350 nM | 
3 | CCCN(C)c1ccc2cc(NC(=O)CCc3ccc(C(F)(F)F)cc3)ccc2n1 | < 50% | 10 nM | 140 nM | 
4 | O=C(CCc1ccc(C(F)(F)F)cc1)Nc1ccc2nc(N3CCC(NC(=O)c4ccccc4)C3)ccc2c1 (stereo unspecified) |  | 10 nM | 110 nM | 
5 | CN(c1ccccc1)c1ccc2cc(NC(=O)CCc3ccc(C(F)(F)F)cc3)ccc2n1 | < 50% | 3700 nM |  | 
6 | O=C(CCc1ccc(C(F)(F)F)cc1)Nc1ccc2nc(N3CCCCCC3)ccc2c1 | < 50% | 36 nM | 1800 nM | 
7 | CNc1ccc2cc(NC(=O)CCc3ccc(C(F)(F)F)cc3)ccc2n1 | < 50% | 20 nM | 330 nM | 
8 | COC(=O)C1CCCN1c1ccc2cc(NC(=O)CCc3ccc(C(F)(F)F)cc3)ccc2n1 (stereo unspecified) |  | 800 nM | 580 nM | 
9 | CC1CCN(c2ccc3cc(NC(=O)CCc4ccc(C(F)(F)F)cc4)ccc3n2)C1 (stereo unspecified) |  | 2 nM | 400 nM | 
10 | O=C(CCc1ccc(C(F)(F)F)cc1)Nc1ccc2nc(N3CCCC3)ccc2c1 | < 50% | 3 nM | 320 nM | EC50 ([3]; hek293): 320 nM
11 | O=C(Nc1ccc2nc([N+]34CCC(CC3)CC4)ccc2c1)c1ccc(C(F)(F)F)nc1 |  |  | > 10000 nM | half-life [4]: 66 min; Vd [5]: 3.92 L/kg; inhibition [6]: 30%; inhibition [7]: 20%; clearance [8]: 57 mL/min/kg
12 | O=C(CCc1ccc(C(F)(F)F)cc1)Nc1ccc2nc(N3CC4CC3CN4)ccc2c1 (stereo unspecified) |  | 210 nM | 490 nM | 
13 | CCCc1cc(N(C)C)c2cc(NC(=O)CCc3ccc(C(F)(F)F)cc3)ccc2n1 |  | 12 nM |  | 
14 | O=C(CCc1ccc(C(F)(F)F)cc1)Nc1ccc2nc(N3CC4CCC3C4)ccc2c1 (stereo unspecified) |  | 1 nM | 150 nM | 
15 | CN(C)c1ccc2cc(NC(=O)CCc3ccc(C(F)(F)F)cc3)ccc2n1 | < 50% | 13 nM | 110 nM | 
16 | O=C(CCc1ccc(C(F)(F)F)cc1)Nc1ccc2nc(N3CCC(c4ccccc4)C3)ccc2c1 (stereo unspecified) |  | 25 nM | 1770 nM | 

Row | Structure (SMILES) | inhibition [1] | IC50 [2] | EC50 [3] | other results
17 | O=C(CCc1ccc(C(F)(F)F)cc1)Nc1ccc2nc(N3CC4CCC3CC4)ccc2c1 | < 50% | 3 nM | 190 nM | 
18 | O=C(CCCCCCCCCCCCc1ccc(C(F)(F)F)cc1)Nc1ccc2nc([N+]34CCC(CC3)CC4)ccc2c1 |  | 5 nM | 25 nM | half-life [4]: 36 min; Vd [5]: 1 L/kg; Reduced food intake (Rattus norvegicus): 26%; IC50 [9]: 13 nM; clearance [8]: 36 mL/min/kg
19 | CC(C)N(C)c1ccc2cc(NC(=O)CCc3ccc(C(F)(F)F)cc3)ccc2n1 | < 50% | 2 nM | 140 nM | 
20 | CC1CCCN1c1ccc2cc(NC(=O)CCc3ccc(C(F)(F)F)cc3)ccc2n1 (stereo unspecified) |  | 5 nM | 270 nM | 
21 | O=C(CCc1ccc(C(F)(F)F)cc1)Nc1ccc2nc(N3CCCCC3)ccc2c1 | < 50% | 12 nM | 110 nM | 
22 | O=C(CCc1ccc(C(F)(F)F)cc1)Nc1ccc2nc(N3CC4CC3CO4)ccc2c1 (stereo unspecified) |  | 13 nM | 70 nM | 
23 | CCCN(CCC)c1ccc2cc(NC(=O)CCc3ccc(C(F)(F)F)cc3)ccc2n1 | < 50% | 490 nM |  | 
24 | NC1CCN(c2ccc3cc(NC(=O)CCc4ccc(C(F)(F)F)cc4)ccc3n2)C1 (stereo unspecified) |  | 12 nM | 200 nM | 
25 | CC(=O)NC1CCN(c2ccc3cc(NC(=O)CCc4ccc(C(F)(F)F)cc4)ccc3n2)C1 (stereo unspecified) |  | 5 nM | 440 nM | 
26 | CN(c1ccc2cc(NC(=O)CCc3ccc(C(F)(F)F)cc3)ccc2n1)C1CCCCC1 | < 50% | 18 nM | 1200 nM | 
27 | CC(C)C(=O)NC1CCN(c2ccc3cc(NC(=O)CCc4ccc(C(F)(F)F)cc4)ccc3n2)C1 (stereo unspecified) |  | 1 nM | 90 nM | 
28 | Nc1ccc2cc(NC(=O)CCc3ccc(C(F)(F)F)cc3)ccc2n1 | < 50% | 240 nM | 720 nM | 
29 | CS(=O)(=O)NC1CCN(c2ccc3cc(NC(=O)CCc4ccc(C(F)(F)F)cc4)ccc3n2)C1 (stereo unspecified) |  | 3 nM | 50 nM | 
30 | CNC(=O)NC1CCN(c2ccc3cc(NC(=O)CCc4ccc(C(F)(F)F)cc4)ccc3n2)C1 (stereo unspecified) |  | 6 nM | 30 nM | 
31 | O=C(CCc1ccc(C(F)(F)F)cc1)Nc1ccc2nc(N3CCC3)ccc2c1 | < 50% | 4 nM | 56 nM | 
32 | O=C(CCc1ccc(C(F)(F)F)cc1)Nc1ccc2nc(N3CCC4(CCNC4)C3)ccc2c1 (stereo unspecified) |  | 0.5 nM | 140 nM | 
